Reference: article PMC5513037, “Examining the influence of specificity ligands and ATP-competitive ligands on the overall effectiveness of bivalent kinase inhibitors” (Proteome Science, 2017)

Legend:
Assay in all cases: KAM-matrix competition in K562 lysate;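 for 0.001 uM KAM: median log10 fold change of treatment over DMSO control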;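 for 0.01 uM KAM: median log10 fold change of treatment over DMSO control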;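 for 0.1 uM KAM: median log10 fold change of treatment over DMSO control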;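 for 1 uM KAM: median log10 fold change of treatment over DMSO control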;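 for 10 uM KAM: median log10 fold change of treatment over DMSO control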
Format in all cases: binding
YES1 = biological target: T1, YES1 (Homo sapiens, UniProt P07947)
T1 construct: endogenous in cells; host or cells: K562
T1 sequence (P07947 whole entry): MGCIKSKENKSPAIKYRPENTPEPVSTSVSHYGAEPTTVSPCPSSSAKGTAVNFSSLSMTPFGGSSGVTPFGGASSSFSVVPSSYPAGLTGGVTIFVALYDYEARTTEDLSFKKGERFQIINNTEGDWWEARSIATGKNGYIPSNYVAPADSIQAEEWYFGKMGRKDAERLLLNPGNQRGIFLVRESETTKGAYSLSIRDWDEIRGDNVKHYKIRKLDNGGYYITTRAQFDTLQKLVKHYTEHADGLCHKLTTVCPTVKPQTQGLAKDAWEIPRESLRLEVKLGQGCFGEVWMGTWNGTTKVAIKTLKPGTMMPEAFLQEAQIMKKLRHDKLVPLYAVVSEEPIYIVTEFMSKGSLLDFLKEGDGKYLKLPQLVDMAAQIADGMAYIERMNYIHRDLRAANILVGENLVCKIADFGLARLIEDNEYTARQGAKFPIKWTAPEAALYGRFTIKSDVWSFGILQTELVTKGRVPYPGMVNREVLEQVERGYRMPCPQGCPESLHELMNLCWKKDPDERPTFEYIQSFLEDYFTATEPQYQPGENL
Procedure: (§1) Supplement 12953_2017_125_MOESM1_ESM.zip/MS_Supp Info.xlsx, sheet "KAM" | column: 10 uM KAM; 1 uM KAM; 0.1 uM KAM; 0.01 uM KAM; 0.001 uM KAM; RB50

STK17B = biological target: T2, STK17B (Homo sapiens, UniProt O94768)
T2 construct: endogenous in cells; host or cells: K562 cells (lysate)
T2 sequence (O94768 1-372): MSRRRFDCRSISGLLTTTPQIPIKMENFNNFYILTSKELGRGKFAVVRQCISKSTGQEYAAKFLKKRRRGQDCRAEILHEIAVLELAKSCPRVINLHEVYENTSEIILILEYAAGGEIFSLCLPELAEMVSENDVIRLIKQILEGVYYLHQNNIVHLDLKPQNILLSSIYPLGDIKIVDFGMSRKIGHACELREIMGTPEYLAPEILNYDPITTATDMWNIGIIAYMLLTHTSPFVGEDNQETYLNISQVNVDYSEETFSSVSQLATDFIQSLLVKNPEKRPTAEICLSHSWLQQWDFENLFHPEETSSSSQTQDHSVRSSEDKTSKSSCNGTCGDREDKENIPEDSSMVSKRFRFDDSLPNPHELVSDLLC
Procedure: as §1

LATS1 = biological target: T3, LATS1 (Homo sapiens, UniProt O95835)
T3 construct: endogenous in cells; host or cells: K562
T3 sequence (O95835 1-1130): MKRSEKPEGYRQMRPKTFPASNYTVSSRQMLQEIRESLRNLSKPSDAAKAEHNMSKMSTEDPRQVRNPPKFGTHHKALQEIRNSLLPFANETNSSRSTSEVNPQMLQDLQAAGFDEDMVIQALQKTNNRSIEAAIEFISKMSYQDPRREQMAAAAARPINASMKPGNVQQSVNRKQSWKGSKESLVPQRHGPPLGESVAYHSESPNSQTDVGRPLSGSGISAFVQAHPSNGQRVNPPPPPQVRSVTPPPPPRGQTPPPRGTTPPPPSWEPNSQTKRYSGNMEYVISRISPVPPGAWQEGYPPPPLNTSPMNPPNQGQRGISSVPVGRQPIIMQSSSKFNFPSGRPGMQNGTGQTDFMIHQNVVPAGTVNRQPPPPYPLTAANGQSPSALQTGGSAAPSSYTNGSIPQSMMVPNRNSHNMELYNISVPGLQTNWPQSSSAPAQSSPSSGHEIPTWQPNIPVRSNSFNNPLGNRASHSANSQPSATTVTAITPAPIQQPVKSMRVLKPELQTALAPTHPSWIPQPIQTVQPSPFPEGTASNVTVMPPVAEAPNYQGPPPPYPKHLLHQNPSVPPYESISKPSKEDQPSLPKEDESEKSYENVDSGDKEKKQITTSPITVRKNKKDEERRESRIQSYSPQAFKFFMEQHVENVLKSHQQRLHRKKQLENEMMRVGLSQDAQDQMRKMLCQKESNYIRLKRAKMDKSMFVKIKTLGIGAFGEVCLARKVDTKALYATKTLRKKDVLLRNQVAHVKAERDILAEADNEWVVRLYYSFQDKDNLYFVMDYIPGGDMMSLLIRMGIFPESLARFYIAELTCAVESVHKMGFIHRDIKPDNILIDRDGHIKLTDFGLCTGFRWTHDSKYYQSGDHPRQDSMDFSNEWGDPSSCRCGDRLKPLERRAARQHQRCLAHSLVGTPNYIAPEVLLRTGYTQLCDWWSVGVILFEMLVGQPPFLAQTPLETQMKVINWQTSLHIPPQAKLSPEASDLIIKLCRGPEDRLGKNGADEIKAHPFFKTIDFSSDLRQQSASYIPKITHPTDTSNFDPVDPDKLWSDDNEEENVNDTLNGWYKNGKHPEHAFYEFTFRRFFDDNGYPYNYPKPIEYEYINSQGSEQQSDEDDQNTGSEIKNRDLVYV
Procedure: as §1

CAMK4 = biological target: T4, CAMK4 (Homo sapiens, UniProt Q16566);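 for 0.001 uM KAM: median log10 fold change of treatment over DMSO control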;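 for 0.01 uM KAM: median log10 fold change of treatment over DMSO control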;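 for 0.1 uM KAM: median log10 fold change of treatment over DMSO control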;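 for 1 uM KAM: median log10 fold change of treatment over DMSO control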;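 for 10 uM KAM: median log10 fold change of treatment over DMSO control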
T4 construct: endogenous in cells; host or cells: K562
T4 sequence (Q16566 1-473): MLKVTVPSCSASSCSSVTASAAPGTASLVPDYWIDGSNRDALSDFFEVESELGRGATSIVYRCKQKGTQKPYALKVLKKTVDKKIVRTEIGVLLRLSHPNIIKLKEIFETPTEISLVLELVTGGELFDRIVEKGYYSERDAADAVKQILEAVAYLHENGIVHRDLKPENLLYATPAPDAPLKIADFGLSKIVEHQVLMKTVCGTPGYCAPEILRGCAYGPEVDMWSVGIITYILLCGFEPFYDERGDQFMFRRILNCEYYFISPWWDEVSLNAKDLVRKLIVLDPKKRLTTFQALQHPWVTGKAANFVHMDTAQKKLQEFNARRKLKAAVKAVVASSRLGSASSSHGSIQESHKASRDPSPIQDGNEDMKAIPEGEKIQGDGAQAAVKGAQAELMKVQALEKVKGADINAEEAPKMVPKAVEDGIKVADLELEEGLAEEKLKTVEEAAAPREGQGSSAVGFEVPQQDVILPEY
Procedure: as §1

IGF1R = biological target: T5, IGF1R (Homo sapiens, UniProt P08069)
T5 construct: K562 cell pellets were thawed on ice and resuspended in cold Lysis buffer; endogenous in cells; host or cells: K562
T5 sequence (P08069 741-1367 limits assumed): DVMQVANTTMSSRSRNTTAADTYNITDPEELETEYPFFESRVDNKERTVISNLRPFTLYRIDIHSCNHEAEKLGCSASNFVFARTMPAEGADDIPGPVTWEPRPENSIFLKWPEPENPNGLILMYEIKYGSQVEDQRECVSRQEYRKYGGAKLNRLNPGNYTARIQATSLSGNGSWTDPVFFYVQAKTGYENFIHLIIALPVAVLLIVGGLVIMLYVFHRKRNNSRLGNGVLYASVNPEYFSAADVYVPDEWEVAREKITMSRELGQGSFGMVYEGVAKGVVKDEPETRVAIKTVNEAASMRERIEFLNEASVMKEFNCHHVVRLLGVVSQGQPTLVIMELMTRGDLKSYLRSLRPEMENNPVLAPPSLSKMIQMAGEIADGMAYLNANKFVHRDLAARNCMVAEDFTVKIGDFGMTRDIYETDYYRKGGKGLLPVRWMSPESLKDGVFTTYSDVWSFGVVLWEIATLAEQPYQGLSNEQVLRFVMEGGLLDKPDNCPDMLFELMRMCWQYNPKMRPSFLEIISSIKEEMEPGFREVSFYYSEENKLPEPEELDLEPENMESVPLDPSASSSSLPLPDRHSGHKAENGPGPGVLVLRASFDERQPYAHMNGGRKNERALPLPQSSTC
T5 sequence (P08069 31-736 partner limits assumed): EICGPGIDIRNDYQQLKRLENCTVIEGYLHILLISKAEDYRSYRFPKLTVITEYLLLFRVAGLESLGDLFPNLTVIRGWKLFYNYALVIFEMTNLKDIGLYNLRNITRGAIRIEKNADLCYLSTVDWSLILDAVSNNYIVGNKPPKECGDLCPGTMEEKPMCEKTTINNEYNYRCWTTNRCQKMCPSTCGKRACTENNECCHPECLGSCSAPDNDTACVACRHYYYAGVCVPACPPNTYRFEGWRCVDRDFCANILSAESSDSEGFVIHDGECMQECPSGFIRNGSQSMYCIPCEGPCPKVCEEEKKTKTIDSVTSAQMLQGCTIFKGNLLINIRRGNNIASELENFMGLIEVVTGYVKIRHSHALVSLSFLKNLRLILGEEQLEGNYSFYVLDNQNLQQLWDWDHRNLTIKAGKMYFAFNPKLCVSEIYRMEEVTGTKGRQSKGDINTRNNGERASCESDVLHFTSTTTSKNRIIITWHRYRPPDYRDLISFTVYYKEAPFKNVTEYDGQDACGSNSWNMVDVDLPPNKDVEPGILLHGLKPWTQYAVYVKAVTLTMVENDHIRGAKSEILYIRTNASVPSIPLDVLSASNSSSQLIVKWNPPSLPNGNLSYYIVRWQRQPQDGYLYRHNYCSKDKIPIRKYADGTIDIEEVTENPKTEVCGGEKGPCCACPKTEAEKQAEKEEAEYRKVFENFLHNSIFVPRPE
Procedure: as §1

ROR2 = biological target: T6, ROR2 (Homo sapiens, UniProt Q01974);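 for 0.001 uM KAM: median log10 fold change of treatment over DMSO control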;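 for 0.01 uM KAM: median log10 fold change of treatment over DMSO control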;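 for 0.1 uM KAM: median log10 fold change of treatment over DMSO control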;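 for 1 uM KAM: median log10 fold change of treatment over DMSO control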;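 for 10 uM KAM: median log10 fold change of treatment over DMSO control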
T6 construct: endogenous in cells; host or cells: K562
T6 sequence (Q01974 34-943): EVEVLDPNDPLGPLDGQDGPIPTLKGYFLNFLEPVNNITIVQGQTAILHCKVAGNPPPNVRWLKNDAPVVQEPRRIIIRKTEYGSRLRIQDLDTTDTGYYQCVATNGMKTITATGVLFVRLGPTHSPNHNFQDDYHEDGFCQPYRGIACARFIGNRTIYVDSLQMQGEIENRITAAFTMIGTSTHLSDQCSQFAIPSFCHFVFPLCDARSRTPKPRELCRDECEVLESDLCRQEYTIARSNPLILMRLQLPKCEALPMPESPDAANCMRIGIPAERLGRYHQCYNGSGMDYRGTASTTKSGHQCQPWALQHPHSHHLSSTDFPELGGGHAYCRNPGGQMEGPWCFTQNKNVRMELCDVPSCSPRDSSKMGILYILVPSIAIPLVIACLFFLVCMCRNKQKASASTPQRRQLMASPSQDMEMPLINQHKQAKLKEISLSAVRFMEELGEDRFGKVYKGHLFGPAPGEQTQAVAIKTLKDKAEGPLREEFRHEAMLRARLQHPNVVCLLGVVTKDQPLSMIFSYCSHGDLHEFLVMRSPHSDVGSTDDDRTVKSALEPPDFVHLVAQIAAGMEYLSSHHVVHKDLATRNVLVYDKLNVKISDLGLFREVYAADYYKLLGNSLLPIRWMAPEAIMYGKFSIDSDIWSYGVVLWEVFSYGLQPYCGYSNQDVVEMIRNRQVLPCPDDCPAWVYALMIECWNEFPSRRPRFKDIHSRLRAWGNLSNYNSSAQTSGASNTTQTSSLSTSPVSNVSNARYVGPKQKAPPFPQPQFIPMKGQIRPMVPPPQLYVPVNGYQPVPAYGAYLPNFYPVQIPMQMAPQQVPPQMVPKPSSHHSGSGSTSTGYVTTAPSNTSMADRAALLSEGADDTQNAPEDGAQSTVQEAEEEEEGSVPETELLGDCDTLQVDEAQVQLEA
Procedure: as §1

[1] = read-out: RB50 (the source's name)
[2] = KAM 0.001-10 uM, read-out: RB50 (the source's name)

## N#CCc1ccc(Nc2nc(NCCCN)cc(Nc3cc(C4CC4)[nH]n3)n2)cc1 [KAM]
YES1; 0.001 uM KAM
  median Log10 fold change: 0.00764
YES1; 0.01 uM KAM
  median Log10 fold change: 0.01465
YES1; 0.1 uM KAM
  median Log10 fold change: -0.1546
YES1; 1 uM KAM
  median Log10 fold change: -0.4462
YES1; 10 uM KAM
  median Log10 fold change: -0.6732
YES1; [1]
  IC50: 0.458 µM
STK17B; 0.001 uM KAM
  median Log10 fold change: 0.02659
STK17B; 0.01 uM KAM
  median Log10 fold change: 0.008023
STK17B; 0.1 uM KAM
  median Log10 fold change: -0.1097
STK17B; 1 uM KAM
  median Log10 fold change: -0.3588
STK17B; 10 uM KAM
  median Log10 fold change: -0.5971
STK17B; [1]
  IC50: 0.799 µM
LATS1; 0.001 uM KAM
  median Log10 fold change: -0.01464
LATS1; 0.01 uM KAM
  median Log10 fold change: -0.02487
LATS1; 0.1 uM KAM
  median Log10 fold change: -0.2673
LATS1; 1 uM KAM
  median Log10 fold change: -0.4734
LATS1; 10 uM KAM
  median Log10 fold change: -0.4675
LATS1; [1]
  IC50: 0.206 µM
CAMK4; [2]
  IC50: > 10 µM
CAMK4; relative to 0 uM KAM = 0
  0.001 uM KAM: -0.0432
  0.01 uM KAM: 0.002565
  0.1 uM KAM: 0.008768
  1 uM KAM: 0.00582
  10 uM KAM: -0.03437
IGF1R; 0.001 uM KAM
  median Log10 fold change: -0.01905
IGF1R; 0.01 uM KAM
  median Log10 fold change: -0.03637
IGF1R; 0.1 uM KAM
  median Log10 fold change: -0.1832
IGF1R; 1 uM KAM
  median Log10 fold change: -0.3556
IGF1R; 10 uM KAM
  median Log10 fold change: -0.4489
IGF1R; [1]
  IC50: 0.696 µM
ROR2; [2]
  IC50: > 10 µM
ROR2; relative to 0 uM KAM = 0
  0.001 uM KAM: -0.05631
  0.01 uM KAM: -0.02329
  0.1 uM KAM: -0.008785
  1 uM KAM: -0.03493
  10 uM KAM: 0.2477
